IC50 data for 15 molecules are collected here from US10081629B2, “Amide derivatives and pharmaceutically acceptable salts thereof, preparation method thereof and medicinal application thereof” (Shanghai Hengrui Pharmaceutical Co., Ltd., priority 2014, dated 2018).

Each structure is given as a SMILES string.

Experiment [1] concerns secretion of PGE2 by A549 cells stimulated with IL-1β. The experiment in a line: Inhibition of the secretion of PGE2 by A549 cells stimulated with IL-1β. It is filed as cell-based. The note with it: Homo sapiens, A549; IL-1β 0.2 ng/mL, 24 hours. The source says:
The method described here was used for determining the inhibition activity of the present compounds on the secretion of PGE2 by A549 cells stimulated with IL-1β.
• 1. PGE2 Assay kit (Cisbio, #62P2APEB) • 2. IL-1β (Peprotech, # AF-200-01B) • 3. Cell line: A549 (ATCC: CCL-185) • 4. FlexStation3 microplate reader. II. Experimental Procedure
On the first day, A549 cells were inoculated in a 96-well plate at 40000/well. On the second day, the culture medium in the 96-well plate was removed and then added with 90 μL of compound diluted with culture medium (the concentration of each compound at seven gradient concentrations was 11111 nM, […], 1.11 nM, 0.11 nM and 0.011 nM). The cells were incubated for 30 minutes at 37° C. in an incubator, and then added with IL-1β to a final concentration of 0.2 ng/mL. Then, the cells were incubated for another 24 hours at 37° C. On the third day, 10 μl of supernatant, 5 μL of PGE2-d2 and 5 μL of anti-PGE2 Cryptate were added into a black 384-well plate, and then incubated at 4° C. overnight. HTRF was determined using Flexstation, and the IC50 of the compounds was obtained by data processing software.
The inhibition activity of the present compounds on the secretion of PGE2 by A549 cells stimulated with IL-1β was determined by the assay described above.

In a further experiment the target is human mPGES1 (Homo sapiens (Human), UniProt O14684). The experiment in a line: Inhibition activity for human mPGES1 (enzyme assay, PGE2 HTRF). It is filed as biochemical. The note with it: membrane protein from HEK-293 F transfected with human mPGES1. As to the method:
The method described here is used for determining the inhibition activity of the present compounds for human mPGES1.
• 1. PGE2 Assay kit (Cisbio, #62P2APEB) • 2. Prostaglandin H2 (Sigma, #P7867-1MG) • 3. FlexStation3 microplate reader. II. Experimental Procedure • 1. Obtaining the membrane proteins of mPGES1 enzyme
The cell density of HEK-293 F was grown to 6×10^5 per milliliter and was transferred with the plasmid containing human mPGES1 gene by transfection reagent PEI the next day. The cells were continuously cultured for 72 hours at 37° C. with shaking. After centrifuging at 1100 g for 5 minutes, the cells were harvested. After ultrasonication in an ice bath and centrifugation at 5000 g for 10 minutes, the supernatant was obtained. The supernatant was centrifuged at 100000 g for 1 hour to obtain a precipitate. The precipitate was resuspended with storage buffer containing 10% glycerinum, subpackaged and frozen rapidly under liquid nitrogen, and stored at −80° C. • 2. mPGES1 enzyme assay
mPGES1 was diluted with assay buffer and added into plate at 49 μL/well supplemented with 1 μL of compound (the final concentration of each compound at seven gradient concentrations was 10000 nM, 1000 nM, 100 nM, 10 nM, 1 nM, 0.1 nM and 0.01 nM). […] Then, each well was added with 53.8 μL of 6 mg/mL SnCl2 to quench the reaction. The sample was diluted with dilute buffer at 1:400. 10 μl of diluted sample, 5 μL PGE2-d2 and 5 μL anti-PGE2 Cryptate were added to a black 384-well plate, and incubated at 4° C. overnight. HTRF was determined using Flexstation, and the IC50 of the compounds was obtained by data processing software.
The inhibition activity of the present compounds on mPGES1 was tested by the assay described above.

Sequence of human mPGES1 (O14684 whole entry): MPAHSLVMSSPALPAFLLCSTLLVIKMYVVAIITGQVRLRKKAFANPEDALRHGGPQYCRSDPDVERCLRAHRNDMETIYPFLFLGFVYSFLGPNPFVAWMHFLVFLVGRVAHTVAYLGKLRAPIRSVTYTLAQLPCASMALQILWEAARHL

In general, IC50 refers to the concentration that inhibits the measured activity by half. Regarding `CC(C)(F)C(=O)NCc1cnc(C(F)F)c(C(=O)Nc2ccc3c(c2)CN(c2ccc(C(F)(F)F)cc2)C3)c1` [Example 26, 2-(Difluoromethyl)-5-(((2-fluoro-2-methyl-propanoyl)amino)methyl)-N-(2-(4-(trifluoromethyl)phenyl)isoindolin-5-yl)nicotinamide], the IC50 was 46 nM in experiment [1] and 3.38 nM against human mPGES1.
Consider `Cn1c(-c2ccc(F)cc2)cc2cc(NC(=O)c3cc(CNC(=O)C4(C(F)(F)F)CC4)ccc3Cl)ccc21` [Example 34, 2-Chloro-N-(2-(4-fluorophenyl)-1-methyl-1H-indol-5-yl)-5-(((1-(trifluoromethyl)cyclopropanecarbonyl)amino)methyl)benzamide], for which the 50% inhibitory concentration (IC50) is 12.2 nM in experiment [1] and 7.75 nM on human mPGES1.
For the molecule `CC(C)C(=O)NCc1cnc(C(F)F)c(C(=O)Nc2ccc3oc(-c4ccc(C(F)(F)F)cc4)nc3c2)c1` [Example 38, 2-(Difluoromethyl)-5-((2-methylpropanoylamino)methyl)-N-(2-(4-(trifluoromethyl)phenyl)benzo[d]oxazol-5-yl)nicotinamide], the IC50 in experiment [1] worked out at 42.9 nM; against human mPGES1, 5.43 nM.
The corresponding values for `CC(C)C(=O)NCc1cnc(C(F)F)c(C(=O)Nc2ccc3oc(-c4ccc(C(F)(F)F)cc4)cc3c2)c1` [Example 39, 2-(Difluoromethyl)-5-((2-methylpropanoylamino)methyl)-N-(2-(4-(trifluoromethyl)phenyl)benzofuran-5-yl)nicotinamide] are 30.5 nM and 3.68 nM.
The corresponding values for `CC(C)C(=O)NCc1cnc(C(F)F)c(C(=O)Nc2ccc3c(c2)CN(c2ccc(C(F)(F)F)cc2)C3)c1` [Example 40, 2-(Difluoromethyl)-5-((2-methylpropanoylamino)methyl)-N-(2-(4-(trifluoromethyl)phenyl)isoindolin-5-yl)nicotinamide] are 16.9 nM and 22.4 nM.
Consider `CC1(C(=O)NCc2cnc(C(F)F)c(C(=O)Nc3ccc4oc(-c5ccc(C(F)(F)F)cc5)nc4c3)c2)CC1` [Example 43, 2-(Difluoromethyl)-5-(((1-methylcyclopropanecarbonyl)amino)methyl)-N-(2-(4-(trifluoromethyl)phenyl)benzo[d]oxazol-5-yl)nicotinamide], for which the IC50 in experiment [1] was 58.2 nM; against human mPGES1, 16 nM.
Regarding `CC(C)C(=O)NCc1cnc(C(F)F)c(C(=O)Nc2ccc3oc(-c4ccc(Cl)cc4)nc3c2)c1` [Example 45, N-(2-(4-Chlorophenyl)benzo[d]oxazol-5-yl)-2-(difluoromethyl)-5-((2-methylpropanoylamino)methyl)nicotinamide], the IC50 in experiment [1] turned out to be 25.9 nM; at human mPGES1 it was 49.4 nM.
The corresponding values for `CC(C)(F)C(=O)NCc1cnc(C(F)F)c(C(=O)Nc2ccc3c(c2)cc(-c2ccc(Cl)cc2)n3[C@H]2CCOC2)c1` [Example 46, (S)-N-(2-(4-Chlorophenyl)-1-(tetrahydrofuran-3-yl)-1H-indol-5-yl)-2-(difluoromethyl)-5-(((2-fluoro-2-methyl-propanoyl)amino)methyl)nicotinamide] are 24.7 nM and 2.71 nM.
Turning to `CC(C)(F)C(=O)NCc1cnc(C(F)F)c(C(=O)Nc2ccc3c(c2)cc(-c2ccc(Cl)cc2)n3[C@@H]2CCOC2)c1` [Example 47, (R)-N-(2-(4-Chlorophenyl)-1-(tetrahydrofuran-3-yl)-1H-indol-5-yl)-2-(difluoromethyl)-5-(((2-fluoro-2-methyl-propanoyl)amino)methyl)nicotinamide], the IC50 in experiment [1] is 18.9 nM; against human mPGES1, 5.72 nM.
The corresponding values for `CC(C)(F)C(=O)NCc1cnc(C(F)F)c(C(=O)Nc2ccc3c(c2)CN(c2cccc(C(F)(F)F)c2)C3)c1` [Example 49, 2-(Difluoromethyl)-5-(((2-fluoro-2-methyl-propanoyl)amino)methyl)-N-(2-(3-(trifluoromethyl)phenyl)isoindolin-5-yl)nicotinamide] are 24 nM and 8.29 nM.
`CC(C)C(=O)NCc1cnc(C(F)F)c(C(=O)Nc2ccc3nc(-c4ccc(C(F)(F)F)cc4)sc3c2)c1` [Example 54, 2-(Difluoromethyl)-5-((2-methylpropanoylamino)methyl)-N-(2-(4-(trifluoromethyl)phenyl)benzo[d]thiazol-6-yl)nicotinamide]: the IC50 amounted to 58.5 nM in experiment [1] and 47.1 nM at human mPGES1.
The corresponding values for `CC(C)(F)C(=O)NCc1cnc(C(F)F)c(C(=O)Nc2ccc3oc(-c4cccc(C(F)(F)F)c4)nc3c2)c1` [Example 56, 2-(Difluoromethyl)-5-(((2-fluoro-2-methyl-propanoyl)amino)methyl)-N-(2-(3-(trifluoromethyl)phenyl)benzo[d]oxazol-5-yl)nicotinamide] are 27.5 nM and 7.74 nM.
Turning to `CC(C)(C)C(=O)NCc1ccc(Cl)c(C(=O)Nc2ccc3c(c2)C(=O)N(c2ccc(Cl)cc2)C3)c1` [Example 57, 2-Chloro-N-(2-(4-chlorophenyl)-3-oxo-isoindolin-5-yl)-5-((2,2-dimethylpropanoylamino)methyl)benzamide], the IC50 in experiment [1] came out at 6.22 nM; on human mPGES1, 6.75 nM.
The matching figures for `CC(C)(C)C(=O)NCc1ccc(Cl)c(C(=O)Nc2ccc3c(c2)C(=O)N(c2ccc(C(F)(F)F)cc2)C3)c1` [Example 58]: 2.18 nM and 8.51 nM.
With `CC(C)(F)C(=O)NCc1cnc(C(F)F)c(C(=O)Nc2ccc3c(c2)C(=O)N(c2cccc(C(F)(F)F)c2)C3)c1` [Example 59, 2-(Difluoromethyl)-5-(((2-fluoro-2-methyl-propanoyl)amino)methyl)-N-(3-oxo-2-(3-(trifluoromethyl)phenyl)isoindolin-5-yl)nicotinamide], the values for the IC50 (in experiment [1]; against human mPGES1) were 20.5 nM and 1.18 nM, respectively.
